Data on 105 compounds can be found in a melting point compilation (Tetko et al.).

With `CNc1ccc(O)c2c1C(=O)c1c(O)ccc(NC)c1C2=O`, the melting point came out at 217 °C.
In turn, `Cc1cncc(C)n1` returned a melting point of 47.5 °C.
As for `CC1=C(C#N)C(c2cccc([N+](=O)[O-])c2)C(C(=O)OC(C)(C)C)=C(C)N1` (stereo not given), the figure is 61 °C; as for `COc1ccc(Br)cc1C=O`, 116 °C.
Next, `COc1cc(F)c(C=O)cc1F`: 99 °C; `Oc1c(Br)cc(Br)cc1Br`: 95.5 °C.
As for `Clc1ccnc2ccccc12`, the figure is 34.5 °C; as for `CCc1nnc(/N=N/c2c(-c3ccccc3)n(C)c3ccccc23)s1`, 221 °C.
In turn, `N#Cc1cnc(N)s1` displayed a melting point of 185 °C.
As for `CC1CCC(C)(CNc2ccccc2)C1(C)C` (stereo not given), the figure is 59 °C; as for `IC=CI`, -14 °C; as for `COc1ccc(Br)c(OC)c1C(=O)O`, 146 to 148 °C.
Next, `Cc1ccc([Si](C)(Cl)Cl)cc1`: 57 °C; `CN(C)c1ccc(CNC2=CC(=O)c3ccccc3C2=O)cc1`: 165 to 167 °C.
Compound `CN1CCC23c4c5ccc(O)c4OC2C(=O)CCC3C1C5` (stereo not given) displayed a melting point of 266 °C.
As for `Cc1nc2sccn2c1C(=O)NN`, the figure is 150 °C; as for `CN1CCC(=C2c3ccccc3CC(=O)c3sccc32)CC1`, 152 °C.
As for `COc1ccc(CNc2ccccn2)cc1`, the figure is 121 to 126 °C; as for `CCOC(=O)c1nn(-c2ccc(Cl)cc2Cl)c(-c2ccc([N+](=O)[O-])cc2)c1S(=O)(=O)c1ccccc1`, 118 °C.
As for `COC(=O)c1cccc(Cn2nc(C)c(Br)c2C)c1`, the figure is 105 to 107 °C; as for `NCC(O)c1ccc(O)c(O)c1` (stereo not given), 217 °C.
Regarding `IC12CC3CC(CC(C3)C1)C2`, the melting point was 75.5 °C.
As for `O=Cc1ccc(N2CCCC2)c([N+](=O)[O-])c1`, the figure is 103 to 105 °C.
Compound `C#CC1(O)CCC2C3CCC4CC5(CCC4(C)C3CCC21C)OCCO5` (stereo not given) showed a melting point of 197 to 199 °C.
As for `O=S(=O)(Cl)c1ccc(-c2nsc(Cl)n2)s1`, the figure is 71 to 74 °C.
Next, `COc1cc2cc(c1Cl)N(C)C(=O)CC(OC(=O)C(C)N(C)C(C)=O)C1(C)OC1C(C)C1CC(O)(NC(=O)O1)C(OC)C=CC=C(C)C2` (stereo not given): 172 °C; `C/C(=N\Nc1ccccc1)c1nc2c(ccc3ccccc32)nc1C`: 209 °C; `Nc1nc(-c2ccc(Br)s2)cs1`: 170 °C.
As for `O=C(C1=NOC2C(=O)N(c3ccc(Cl)cc3)C(=O)C12)c1ccccc1` (stereo not given), the figure is 137 °C; as for `N#Cc1ccc(Cl)cc1F`, 60 °C; as for `CC(=O)OC1CC[C@]2(C)[C@H]3CC[C@]4(C)C(=O)CC[C@H]4[C@@H]3C(=O)C[C@@]2(C)C1` (stereo not given in full), 153 to 157 °C.
As for `COc1ccc(O)cc1C(C)(C)C`, the melting point was 48 °C.
As for `O=Cc1c[nH]nc1-c1ccccc1`, the figure is 146 to 148 °C.
As for `CC(C)CCCC(C)C1CCC2C3CC(Cl)C4(O)CC(=O)CCC4(C)C3CCC12C` (stereo not given), the figure is 214 °C; as for `CCOC(=O)c1c(NC(=O)Nc2ccccc2)sc2c1CCCC2`, 150 to 152 °C; as for `O=C1C=C(/C=C/c2ccccc2)CCC1`, 65 to 67 °C.
As to `Cc1ccc(N/N=C(/C(=O)c2cccc3ccccc23)S(=O)(=O)c2ccccc2)cc1`, the melting point is 108 to 110 °C.
As for `O=C(CCCN1CCC(n2c(=S)[nH]c3ccccc32)CC1)c1ccc(F)cc1`, the figure is 202 °C.
As for `COc1ccc2sc(S)nc2c1`, the figure is 196 °C; as for `CCOC(=O)c1nn(-c2ccc(C)cc2)c(C)c1C(=O)C1=NOC2C(=O)N(c3ccc(Br)cc3)C(=O)C12` (stereo not given), 238 °C.
As for `CSC(=Nc1ccccc1)C(C#N)=C(N)SC`, the figure is 177 °C; as for `COc1ccc(Oc2ccc([N+](=O)[O-])cc2C(=O)Cl)cc1`, 91 to 93 °C; as for `Cc1c(NN=C2C(=O)NN=C2c2c(O)c3ccccc3n(C)c2=O)c(=O)n(-c2ccccc2)n1C`, 200 °C.
`N=C(N)NCCCC(NC(=O)c1ccccc1)C(=O)O` (stereo not given) showed a melting point of 285 °C.
Turning to `Cc1ccccc1S`, the melting point was found to be 15 °C.
As for `COc1ccc(C(N)=O)cc1OC`, the figure is 164 °C; as for `O=C1C=C(NCc2ccc(Cl)c(Cl)c2)C(=O)c2ccccc21`, 217 °C.
Next, `CC1=CCC=C(C)CCC=C(C)CCC(C(C)C)C=C1` (stereo not given): 59 to 61 °C; `CCOc1ccc2[nH]c(=S)sc2c1`: 199 °C; `COc1ccc2c(c1)c(CC(=O)O)c(C)n2C(=O)C=Cc1ccccc1`: 170 °C.
Next, `Cc1nccn1-c1ccc(CN)cc1`: 90.5 to 91.5 °C; `CC(C)(C)OC(=O)N1Cc2ccccc2C[C@H]1C(=O)O`: 125 to 126 °C.
Take `N[C@@H](Cc1cc(I)c(O)c(I)c1)C(=O)O`: the melting point was 213 °C.
The compound `CN1CCC23c4c5ccc(O)c4OC2C(O)CCC3C1C5` (stereo not given) came in with a melting point of 157 °C.
As for `C(=N\c1ccc(-c2ccc(/N=N/c3ccccc3)cc2)cc1)/c1ccccc1`, the figure is 226 °C; as for `CCC(N)Cc1c[nH]c2ccccc12` (stereo not given), 97 °C.
`OC(c1ccccc1)(c1ccccc1)[C@H]1CCCN1` displayed a melting point of 77 to 81 °C.
The compound `COC(=O)[C@@]12[C@H]3c4c(c(-c5ccccc5)c5ccccc5c4-c4ccccc4)[C@@H]1C=C[C@]32C(=O)OC` had a melting point of 210 °C.
As for `Cc1ccc2c(c1C)CCC1C2CCC2CCCCC21C` (stereo not given), the figure is 156 °C; as for `CC(=O)N=c1c(-c2ccccc2)cc2cc3cc(-c4ccccc4)c(=NC(C)=O)n(C(C)=O)c3cc2n1C(C)=O`, 238 to 240 °C.
As for `CCCCC(CC)(CO)CO`, the figure is 43.8 °C.
As for `CCCCOc1ccc(/C=N/c2ccc(C(C)=O)cc2)cc1`, the figure is 80 to 128 °C; as for `OC[C@H]1O[C@@H](n2cnc3c(Cl)ncnc32)[C@H](O)[C@@H]1O`, 161 to 163 °C.
For the compound `c1ccc(C2=C(c3ccccc3)C(c3ccccc3)C(c3ccccc3)=C2c2ccccc2)cc1`, the melting point was 254 to 257 °C.
Compound `CCCCc1ccc2ccccc2c1` had a melting point of -5 °C.
With `COC(=O)C1(S(=O)(=O)c2ccc(C)cc2)CCCCC1`, the melting point was determined as 146 °C.
As for `O=Cc1ccc(-c2ccc(Br)cc2)o1`, the figure is 150 to 155 °C; as for `CC(CC(=O)O)C1CCC2C3C=CC4CC(O)CCC4(C)C3CC(O)C12C` (stereo not given), 181 °C.
Compound `COC=CC(=O)OC` had a melting point of 3 to 4 °C.
Next, `CCCC1(O)CCC2C3CCC4CC(OC(C)=O)CCC4(C)C3CCC21C` (stereo not given): 120 to 121 °C.
As for `CCOC(=O)Cc1cccc2ccccc12`, the figure is 88.5 °C; as for `N#C/C(=N\Nc1ccc(Cl)cc1)c1nc2ccccc2c(=O)[nH]1`, 253 °C.
Compound `OCCCCC(O)CO` (stereo not given) displayed a melting point of 25 to 32 °C.
As for `O=C(C(Cl)Cl)C(Cl)(Cl)Cl`, the figure is 2.1 °C.
As for `Cn1c(=O)c(C2=NNC(=O)C2=NNc2ncccn2)c(O)c2ccccc21`, the figure is 302 °C; as for `O=c1oc(=O)c2cc3c(=O)oc(=O)c3cc12`, 283 to 287 °C; as for `Nc1c(Br)cc(C2CCCCC2)cc1Br`, 37 to 38 °C.
Next, `CCc1nn(CCCN2CCN(c3cccc(Cl)c3)CC2)c(=O)n1CCOc1ccccc1`: 83.5 °C.
Compound `CCOC(=O)C(C#N)=NNc1cccc([N+](=O)[O-])c1` displayed a melting point of 155 to 156 °C.
Next, `O=Cc1cc(Cl)cc(Br)c1O`: 86 °C.
Compound `CCOc1ccccc1NC(C)=O` gave a melting point of 79 °C.
Next, `N#Cc1c(F)cccc1-n1cccc1`: 67 to 69 °C; `O=Cc1ccc(Br)cc1F`: 61 °C.
`Cc1nc2nn(C)cc2c(=O)n1N`: the melting point lay within 147 to 148 °C.
As for `CCOc1ccccc1C(N)=O`, the figure is 133 °C; as for `N#Cc1c(-c2ccc(Br)cc2)cc2c(C#N)c(=N)n(C(=O)c3ccc(Cl)cc3)n2c1N`, 190 °C.
As for `N#C/C(=N/Nc1cccc(C(F)(F)F)c1)C(=O)c1cccs1`, the figure is 173 °C; as for `CC1=C(O)C(=O)C(C)O1` (stereo not given), 80.5 °C; as for `CCCC/C=C/CCCCC`, -61.1 °C.
As for `CC(C)Nc1ccc(C#N)cc1[N+](=O)[O-]`, the figure is 113 to 115 °C; as for `O=c1cc(Cl)nc[nH]1`, 194 to 195 °C.
`N#Cc1ccc(O)cc1F` returned a melting point of 125 °C.
Next, `CCCOC(N)=O`: 60 °C; `CCC(CO)NC(=O)C1C=C2c3cccc4[nH]cc(c34)CC2N(C)C1` (stereo not given): 172 °C; `Cc1nn(-c2ccccc2)nc1C(=O)NN`: 123 to 125 °C.
Next, `Clc1nccc2occc12`: 41 to 42 °C; `Oc1ccc2ccc3cccc4ccc1c2c34`: 180 °C; `Cn1cncc1CC1COC(=O)C1C(O)c1ccccc1` (stereo not given): 179 °C.
Next, `CC1(C)C2CCC1(C)C(O)C2` (stereo not given): 214 °C; `O=C(CCCC(=O)c1ccccc1)c1ccccc1`: 64 to 67 °C.
For the compound `Cc1cc(=O)[nH]c2c(/N=N/c3ccc(Cl)cc3)c(N)nn12`, the melting point was in the range of 307 to 308 °C.
Next, `C[Si](C)(C1C=Cc2ccccc21)C1C=Cc2ccccc21` (stereo not given): 85 to 87 °C; `CNc1ccc2cc3ccc4c(c3nc2c1CO)COCN4S(C)(=O)=O`: 205 °C; `O=C=Nc1csc(-c2ccc(C(F)(F)F)cc2)n1`: 51 °C.
As for `ON=Cc1ccc(Cl)cc1`, the figure is 100 to 102 °C.

A word on the melting point: it is the temperature, or range, at which the solid turns liquid.
